Drawing on PubChem BioAssay (NCI), this text covers TGI and GI50 for 15 compounds.

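96-well plates; 48 h exposure; 5 concentrations. Endpoints by linear interpolation between flanking doses. Not reached: highest tested concentration assigned. GI50 is the concentration that inhibits growth by half. The concentration for full growth arrest is given as TGI.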

Some test systems named below: CAKI-1 renal; HCT-15 colon; HOP-62 NSCLC; HT29 colon; OVCAR-8 ovarian; PC-3 prostate; SK-MEL-28 melanoma; SNB-19 CNS; SW-620 colon; NCI-H522 lung.
Common to all, as to test: NCI tumour cell line growth inhibition, 48 h

For the compound `O=C1CC(c2cccc(Cl)c2)Oc2ccccc21` (stereo unspecified), the TGI in the assay on CAKI-1 renal came out at 23.3 µM; in the assay with HCT-15 colon, 49 µM; in the assay with HOP-62 NSCLC, 32.6 µM; in the assay on HT29 colon, 33.3 µM; in the assay with OVCAR-8 ovarian, 53.8 µM; in the assay with PC-3 prostate it was 30.4 µM. For the same compound, the TGI was found to be 42.2 µM with SK-MEL-28 melanoma, 30.8 µM with SNB-19 CNS and 72.1 µM in the assay with SW-620 colon.
Consider `O=C1CC(C2(O)C(=O)Nc3ccc([N+](=O)[O-])cc32)c2ccccc21` (stereo unspecified), for which the TGI was 37.8 µM with HCT-15 colon; over 100 µM with HOP-62 NSCLC; 62.7 µM in the assay with HT29 colon; 26.3 µM in the assay on NCI-H522 lung; over 100 µM in the assay on OVCAR-8 ovarian; 62 µM with SK-MEL-28 melanoma. For the same compound, the TGI with SNB-19 CNS is over 100 µM; with SW-620 colon, 81.6 µM.
As for `CCCC(O)c1cn(-c2cccc(S(=O)(=O)O)c2)nn1` (stereo unspecified), the TGI in the assay on CAKI-1 renal, in the assay with HCT-15 colon, in the assay on HOP-62 NSCLC, with HT29 colon, with NCI-H522 lung and with OVCAR-8 ovarian was over 100 µM in each case. The TGI with SK-MEL-28 melanoma, with SNB-19 CNS and in the assay on SW-620 colon was over 100 µM each time.
In the case of `CC1=NN(c2ccccc2)C(=O)C12[C@H](c1ccccc1)C2(C#N)C#N` (stereo partly specified), the TGI was determined as 16.3 µM in the assay on CAKI-1 renal; 13.9 µM in the assay with HCT-15 colon; 31.1 µM with HOP-62 NSCLC; 17.1 µM in the assay with HT29 colon; 11.5 µM in the assay on NCI-H522 lung; 7.27 µM in the assay on OVCAR-8 ovarian. The TGI turned out to be 9.6 µM in the assay with SK-MEL-28 melanoma, 29.5 µM with SNB-19 CNS and 3.84 µM with SW-620 colon.
`O=C1OC(=O)C23CSCC12C1C=CC3O1` (stereo unspecified): the TGI in the assay on CAKI-1 renal, with HCT-15 colon, with HOP-62 NSCLC, in the assay with HT29 colon, with NCI-H522 lung and with OVCAR-8 ovarian was over 100 µM throughout. For the same compound, the TGI in the assay on SK-MEL-28 melanoma, with SNB-19 CNS and in the assay with SW-620 colon was over 100 µM in each case.
Take `O=C1C(Cl)=C(Cl)C(=O)N1c1ccc(Cl)c(Cl)c1Cl`: the TGI with CAKI-1 renal was 56.2 µM; in the assay on HCT-15 colon, over 100 µM; in the assay on HOP-62 NSCLC, over 100 µM; with HT29 colon, over 100 µM; in the assay on NCI-H522 lung, 28.8 µM; in the assay on SK-MEL-28 melanoma, over 100 µM. Also, the TGI in the assay with SNB-19 CNS and in the assay on SW-620 colon was over 100 µM in each case.
For `CC(=O)OCC1OC(n2c(=O)[nH]c(=O)c3n[nH]nc32)C(OC(C)=O)C(OC(C)=O)C1OC(C)=O` (stereo unspecified), the TGI in the assay with CAKI-1 renal, with HCT-15 colon, in the assay with HOP-62 NSCLC, with HT29 colon, in the assay on NCI-H522 lung and in the assay on OVCAR-8 ovarian was over 100 µM each time. Moreover, the TGI in the assay on SK-MEL-28 melanoma, in the assay on SNB-19 CNS and with SW-620 colon was over 100 µM in each case.
`COc1ccc(Br)c(CN2CCc3ccccc32)c1OS(=O)(=O)c1ccc(C)cc1`: the TGI with HCT-15 colon was over 100 µM; in the assay on NCI-H522 lung it was 30.8 µM; in the assay on OVCAR-8 ovarian it was over 100 µM; in the assay on SK-MEL-28 melanoma it was over 100 µM; with SNB-19 CNS, over 100 µM; in the assay on SW-620 colon, over 100 µM.
Consider `CN1CCC(c2c(O)cc(O)c3c(=O)cc(-c4ccccc4Cl)oc23)C(O)C1` (stereo unspecified), for which the GI50 in the assay with HCT-15 colon was 0.0506 µM; in the assay with SW-620 colon, 0.0532 µM. Moreover, the TGI with HCT-15 colon was over 100 µM; in the assay with HT29 colon, over 56.3 µM; in the assay on NCI-H522 lung, 0.448 µM; in the assay with SK-MEL-28 melanoma, 0.6 µM; with SNB-19 CNS, over 100 µM; in the assay on SW-620 colon, over 100 µM.
For the compound `CCC(C)(O)c1cn(-c2ccc(Cl)cc2)nn1` (stereo unspecified), the TGI in the assay on CAKI-1 renal, with HCT-15 colon, in the assay with HOP-62 NSCLC, in the assay on HT29 colon, in the assay with NCI-H522 lung and with OVCAR-8 ovarian was over 100 µM in each case. For the same compound, the TGI in the assay with SK-MEL-28 melanoma, in the assay on SNB-19 CNS and in the assay on SW-620 colon was over 100 µM each time.
`CCCCCCCC(=O)[O-].CCCCCCCC(=O)[O-].N.N.N.N.[Co+3].[O-][Cl+3]([O-])([O-])[O-]`: the GI50 in the assay with HCT-15 colon, with OVCAR-8 ovarian, in the assay on SK-MEL-28 melanoma, in the assay with SNB-19 CNS and with SW-620 colon was over 100 µM each time. Also, the TGI with HCT-15 colon, with OVCAR-8 ovarian, with SK-MEL-28 melanoma, in the assay on SNB-19 CNS and in the assay with SW-620 colon was over 100 µM in each case.
Turning to `COc1cc(Cc2c(C)cc(OC)c3[nH]c4ccccc4c23)cc2c1[nH]c1ccccc12`, the GI50 in the assay with HCT-15 colon was 6.89 µM; in the assay on HOP-62 NSCLC it was 5.49 µM; in the assay with HT29 colon, 7.84 µM; in the assay on NCI-H522 lung, 5.03 µM; with SK-MEL-28 melanoma, 8.61 µM; in the assay with SW-620 colon it was 8.09 µM. For the same compound, the TGI in the assay on HCT-15 colon was over 25 µM; in the assay on HOP-62 NSCLC it was 11 µM; in the assay with HT29 colon, over 25 µM; with NCI-H522 lung it was 11.6 µM; in the assay on OVCAR-8 ovarian, 10.9 µM; with SK-MEL-28 melanoma, over 25 µM. The TGI with SNB-19 CNS and in the assay on SW-620 colon was over 25 µM throughout.
`Cc1cc(Cl)cc2c1NC(=O)C2(O)CC(=O)c1ccc(Br)cc1` (stereo unspecified): the TGI in the assay with CAKI-1 renal, in the assay on HCT-15 colon, with HOP-62 NSCLC, in the assay on HT29 colon, with NCI-H522 lung and in the assay on OVCAR-8 ovarian was over 100 µM in each case. In addition, the TGI in the assay with SK-MEL-28 melanoma is 97.9 µM; with SNB-19 CNS it was over 100 µM; in the assay on SW-620 colon, over 100 µM.
Take `COc1ccc(NC(=O)CC(=O)N/N=C(\C)c2cc3ccccc3oc2=O)cc1`: the TGI in the assay on HCT-15 colon, in the assay on HOP-62 NSCLC, with HT29 colon, with NCI-H522 lung, with OVCAR-8 ovarian and in the assay on SK-MEL-28 melanoma was over 100 µM each time. The TGI with SNB-19 CNS and in the assay on SW-620 colon was over 100 µM in each case.
As for `CCOC(=O)[C@@]12C(C)=CC(=O)O[C@]1(C)C1C(=O)NC(=O)C12` (stereo partly specified), the TGI with HOP-62 NSCLC, in the assay with HT29 colon, in the assay with OVCAR-8 ovarian, in the assay with SK-MEL-28 melanoma, with SNB-19 CNS and in the assay with SW-620 colon was over 100 µM each time.
